# Assay results taken from patent publication US20260240828A1, “GLYCOSPHINGOLIPID BIOSYNTHESIS INHIBITORS FOR TREATMENT OF TUMOURS DEPENDENT ON THE ONCOGENE GOLPH3 AND ON ONCOGENES OF THE GOLPH3 CLUSTER” (Golgenia S.R.L., priority 2023, published 2026).
# Key:
# Format in all cases: cell-based
# [1] = test system: DU145; assay: Chemoresistance: growth under adhesion with etoposide, p21 cell cycle arrest, DU145; settings: FIG. 2B
# Protocol: (§1) Eliglustat alone has no effect.
# (§2) The cells were treated with etoposide at a concentration ranging between 10 and 40 μM for 12-16 hours.
# (§3) The p21 levels were determined by immunoblotting as cycle arrest index.
# [2] = test system: LnCap; assay: Chemoresistance: growth under adhesion with etoposide, p21 cell cycle arrest, LnCap; settings: FIG. 2B
# Protocol: as §1, §2, §3
# [3] = test system: lines expressing an oncogene belonging to the GOLPH3 cluster; assay: Growth under adhesion to the matrix and absence of stress; settings: lines expressing a GOLPH3 cluster oncogene; FIG. 2A1 bottom series
# Protocol: (§4) The growth of tumour lines was evaluated under different experimental conditions. 12 tumour lines, divided into six pairs derived from six different types of tumour, were used. […] The growth of the lines was observed under 3 experimental conditions: 1) absence of anchorage to the matrix; 2) exposure to chemotherapy agents; 3) undisturbed growth under adhesion to the matrix.
# (§5) Growth under conditions of adhesion to the matrix and absence of stress (bottom series, black) of the lines expressing an oncogene belonging to the GOLPH3 cluster is not inhibited by miglustat. Inhibition of GSL synthesis was about 70% (at 50 micromolar miglustat).
# (§6) GCS enzyme inhibitors such as miglustat, eliglustat and N-[(1R,2R)-2-(2,3-dihydro-1,4-benzodioxin-6-yl)-2-hydroxy-1-(1-pyrrolidinylmethyl)ethyl]-nonanamide (Genz-123346), or P-gp inhibitors such as zosuquidar, were used at two or three different concentrations, depending on the type of dose, to blockade glycosphingolipid biosynthesis in various tumour cells. For the growth assays, new media supplemented with the medicaments were added every three days.
# (§7) • 1. Growth in the absence of anchorage (anchorage-independent) • 2. Growth of isolated cell clones (clonogenic analysis) • 3. Growth under adhesion (under adhesion).
# (§8) Both the anchorage-independent and clonogenic growth tests were conducted as described previously in Rizzo et al., EMBOJ, 2021. […]
# [4] = test system: GSL synthesis; assay: Glycosphingolipid metabolism (radiolabelling of cell sphingosine, TLC); settings: at 50 micromolar miglustat
# From the text: To analyse the glycosphingolipid metabolites we used a method based on radiolabelling of cell sphingosine followed by extraction of metabolites and separation by thin-layer chromatography (TLC) as previously described in Rizzo et al., EMOJ, 2021.
# [5] = test system: tumour lines deriving from the same tumour type which do not express GOLPH3; assay: Growth under anchorage-independent conditions, lines not expressing GOLPH3; settings: 0 to 50 micromolar; lines of same tumour type not expressing GOLPH3; FIG. 2A1 middle series
# Protocol: as §4, §5, §6, §7, §8
# [6] = test system: prostate, colon and liver tumour lines expressing an oncogene belonging to the GOLPH3 cluster; assay: Growth under anchorage-independent conditions, lines expressing a GOLPH3 cluster oncogene; settings: concentrations 0 to 50 micromolar, FIG. 2A1 top series
# Protocol: as §4, §5, §6, §7, §8
smiles,measurement,setting,value
COc1cc([C@@H]2c3cc4c(cc3[C@@H](O[C@@H]3O[C@@H]5CO[C@@H](C)O[C@H]5[C@H](O)[C@H]3O)[C@H]3COC(=O)[C@H]23)OCO4)cc(OC)c1O [etoposide],response to etoposide alone (chemoresistance),"[1]; DU145, expressing a GOLPH3 cluster oncogene",resistant
same,"cell cycle arrest (p21 synthesis), etoposide alone",[2]; not expressing a GOLPH3 cluster oncogene,cell cycle arrest (strong increase in p21 synthesis)
CCCCN1C[C@H](O)[C@@H](O)[C@H](O)[C@H]1CO [miglustat],growth under conditions of adhesion to the matrix and absence of stress,[3],not inhibited
same,inhibition at 50 µM,[4],~70%
same,growth under anchorage-independent conditions,[5],not inhibited
same,growth under anchorage-independent conditions,[6],inhibited
CCCCCCCC(=O)N[C@H](CN1CCCC1)[C@H](O)c1ccc2c(c1)OCCO2 [eliglustat],effect of co-treatment on resistance to etoposide,"[1]; DU145, co-treatment with etoposide",loses said resistance
same,effect of inhibitor alone,[1]; without etoposide,no effect
same,effect of co-treatment on etoposide-induced cell cycle arrest,[2]; co-treatment with etoposide,does not modify said situation
